Structures are written as SMILES.

The subject of assay [1] is rabbit platelets. The assay is described as follows: In vitro rabbit platelet aggregation induced by ADP, collagen, AA or A 23187 Ca ionophor. Type of assay: cell-based. The text has this:
We compared on rabbit platelets the in vitro antiaggregatory effect , of acetylsalicylic acid (ASA), salicylic acid (SA). Pentoxifylline (Pentox or Trental), Nospa, Papaverine and Depogen. The aggregation of the rabbit platelets was induced by adenosine diphosphate (ADP), arachidonic acid (AA), Collagen and A 23187 Ca ionophor.

Assay [2] concerns rabbit platelets. The assay is described as follows: Inhibition of PAF induced platelet aggregation. The class given is cell-based. The following applies: aggregation induced by 1 µM of PAF.
Assay [3] relates to rabbit platelets. Put plainly: Inhibition of PAF induced serotonine release in platelets. The following applies: release induced by 5 x 10⁻⁸ M of PAF. Type of assay: cell-based.
Assay [4] relates to platelet aggregation. Put plainly: Ex vivo platelet aggregation after administration. Type of assay: in vivo, rabbits.
In assay [5] the test system is thrombus formation. The assay is described as follows: In vivo thrombus formation on cotton thread in arterio-venous plastic vessel shunt. Details: species or system anaesthetised rabbits. Here is the method: We investigated furthermore the in vivo antithrombotic effect of Depogen on anaesthetised rabbits. Depogen was administered intravenously in a dose range of 2.5-7.5 mg/kg. The vena yugularis was connected with the arteria carotis with the help of a plastic vessel. In the plastic vessel a cotton thread was placed, which served as inductor. The amount of thrombus sticked to the surface of the cotton was weighed in the case of the treated and untreated animals (after Herrmann R.G. et al., Proc. Soc. Exp. Biol. Med. 139, 548-552, 1972.)

The test system of assay [6] is prostacyclin release from the aorta. Put plainly: In vitro prostacyclin (PGI2) release from the aorta. As to conditions: in vitro (Figure 6). Type of assay: cell-based. The text has this: From the point of view of PGI2 release Depogen represents a considerable […] compared to Pentoxifylline, as the ratio of the doses inhibiting platelet aggregation and increasing PGI2 release is lower for Depogen than for Pentoxifylline (Table 6) and thus the effective dose ranges of the two actions are closer to each other in the case of Depogen.

Assay [7] has as its system thromboxane and prostacyclin level of the blood plasma. The assay is described as follows: Thromboxane and prostacyclin level of the blood plasma after 4 days per os administration. The following applies: rat, determined on the 5th day. Type of assay: in vivo. The method, then: We investigated the effect of Depogen on the thromboxane and prostacyclin level of the blood plasma, in rat, after 4 days of per os administration in doses of 5 mg/kg and 10 mg/kg. On the 5th day we determined the thromboxane and prostacyclin level of the blood plasma (Table 7).

Assay [8] concerns acified ethanol- and indomethacine- induced ulceration. Put plainly: Acidified ethanol- and indomethacin-induced ulceration. Type of assay: in vivo. The following applies: rat, in the antiaggregatory dose. The text has this: The active ingredients according to the present invention, first of all Depogen, have further advantages compared with the widespreadly used ASA. ASA has significant gastrointestinal adverse effects, such as peptic ulcer, gastric haemorrhage. Depogen has no such adverse effect, and what is more, it has a weak ulcus-preventing activity. According to the measurements, in the antiaggregatory dose it exerts a 25-50 % inhibition on the acified ethanol- and indomethacine- induced ulceration in rat.

The mark [9] stands for this setting: Oryctolagus cuniculus, Platelet, read-out: IC50 rabbit platelet aggregation, A-23187.
Where [10] appears, read: Oryctolagus cuniculus, Platelet, read-out: IC50 rabbit platelet aggregation, AA.
Setting [11] is: Oryctolagus cuniculus, Platelet, read-out: IC50 rabbit platelet aggregation, ADP.
Where [12] appears, read: Oryctolagus cuniculus, Platelet, read-out: IC50 rabbit platelet aggregation, Collagen.
The mark [13] stands for this setting: Oryctolagus cuniculus, Platelet.
[14] abbreviates: Table 5, unit inferred, aggregation induced by A 23187, read-out: Antiaggregatory Effect A 23187.
Setting [15] is: Table 5, unit inferred, aggregation induced by AA, read-out: Antiaggregatory Effect AA.
[16] abbreviates: Table 5, unit inferred, aggregation induced by ADP, read-out: Antiaggregatory Effect ADP.
The mark [17] stands for this setting: Table 5, unit inferred, aggregation induced by Collagen, read-out: Antiaggregatory Effect Collagen.
The mark [18] stands for this setting: aggregation induced by A-23187 Ca ionophor, in vitro, read-out: IC50 rabbit platelet aggregation, A-23187.
Setting [19] is: aggregation induced by ADP, in vitro, read-out: IC50 rabbit platelet aggregation, ADP.
Where [20] appears, read: aggregation induced by Collagen, in vitro, read-out: IC50 rabbit platelet aggregation, Collagen.
The mark [21] stands for this setting: aggregation induced by arachidonic acid (AA), in vitro, read-out: IC50 rabbit platelet aggregation, AA.
Setting [22] is: p.o. 10 mg/kg/day during 4 days.
[23] abbreviates: Oryctolagus cuniculus, Platelet, aggregation induced by A-23187 Ca ionophor, in vitro, read-out: IC50 rabbit platelet aggregation, A-23187.
Where [24] appears, read: Oryctolagus cuniculus, Platelet, aggregation induced by ADP, in vitro, read-out: IC50 rabbit platelet aggregation, ADP.
Where [25] appears, read: Oryctolagus cuniculus, Platelet, aggregation induced by Collagen, in vitro, read-out: IC50 rabbit platelet aggregation, Collagen.
The mark [26] stands for this setting: Oryctolagus cuniculus, Platelet, aggregation induced by arachidonic acid (AA), in vitro, read-out: IC50 rabbit platelet aggregation, AA.

Regarding `COc1ccc(Cc2nccc3cc(OC)c(OC)cc23)cc1OC` [Papaverine, 1-(3′,4′-dimethoxy-benzyl)-6,7-dimethoxy-isoquinoline], the IC50 in assay [1] (Oryctolagus cuniculus, Platelet, read-out: Antiaggregatory Effect A 23187) stood at 1060 µM; in assay [1] (Oryctolagus cuniculus, Platelet, read-out: Antiaggregatory Effect AA), 130 µM; in assay [1] (Oryctolagus cuniculus, Platelet, read-out: Antiaggregatory Effect ADP), 190 µM; in assay [1] (Oryctolagus cuniculus, Platelet, read-out: Antiaggregatory Effect Collagen), 270 µM; in assay [1] (setting [9]) it was 1060 µM; in assay [1] (setting [10]), 130 µM. Besides, the IC50 in assay [1] (setting [11]) is 190 µM; in assay [1] (setting [12]), 270 µM; in assay [2] (setting [13]) it was 656 µM; in assay [3] (setting [13]), 48.2 µM.
For the compound `O=C(O)c1ccccc1O` [Salicylic acid, salicylic acid, reference compound], the IC50 in assay [1] (setting [9]) was found to be 2610 µM; in assay [1] (setting [10]), 1010 µM; in assay [1] (setting [11]) it was 1380 µM; in assay [1] (setting [12]) it was 1300 µM.
Turning to `CCOc1ccc(CC2=NCCc3cc(OCC)c(OCC)cc32)cc1OCC` [Depogen, (3′,4′-diethoxy-benzyl)-6,7-diethoxy-3,4-dihydroisoquinolinium theophyllin-7-acetate], the IC50 amounted to 228 µM in assay [1] (setting [14]); 240 µM in assay [1] (setting [15]); 247 µM in assay [1] (setting [16]); 140 µM in assay [1] (setting [17]); 230 µM in assay [1] (setting [18]); 247 µM in assay [1] (setting [19]). For the same compound, the IC50 stood at 140 µM in assay [1] (setting [20]), 240 µM in assay [1] (setting [21]), 684 µM in assay [2] (setting [13]) and 118 µM in assay [3] (setting [13]). Also, the “antiaggregatory effect, times stronger than that of ASA” value in assay [1] (compared with ASA, in vitro) is 10-20 times. The inhibition at 2.5 mg/kg in assay [4] (Oryctolagus cuniculus, Platelet, iv, dose 2.5 mg/kg intravenously, read-out: Inhibitory Effect % ex vivo aggregation) is 30 ± 4%. In addition, the inhibition at 5 mg/kg in assay [4] (Oryctolagus cuniculus, Platelet, iv, dose 5.0 mg/kg intravenously, read-out: Inhibitory Effect % ex vivo aggregation) stood at 45 ± 5%. Further, the inhibition at 7.5 mg/kg in assay [4] (Oryctolagus cuniculus, Platelet, iv, dose 7.5 mg/kg intravenously, read-out: Inhibitory Effect % ex vivo aggregation) amounted to 55 ± 6%. In addition, in assay [4] (after oral and intravenous administration (Figures 3 and 4)), the “antiaggregatory effect in ex vivo experiments” value is “significant antiaggregatory effect”. Further, the “Inhibitory Effect % in vivo thrombus formation” value in assay [5] (dose 2.5 mg/kg intravenously) came out at 25± 3%; in assay [5] (dose 5.0 mg/kg intravenously) it was 45± 5%; in assay [5] (dose 7.5 mg/kg intravenously) it was 60± 7%. Further, the “prostacyclin release from the aorta” value in assay [6] is listed as “significantly enhances”. For the same compound, the PGI2 in assay [7] (p.o. 5 mg/kg/day during 4 days) is recorded as 206.4± 11.2 pg/ml of plasma; in assay [7] (setting [22]) it was 363.8± 19.3 pg/ml of plasma. Also, the figures for the PGI2/TxA2 in assay [7] (p.o. 5 mg/kg/day during 4 days) and in assay [7] (setting [22]) were 4.2 and 11, respectively. For the same compound, the TxA2 in assay [7] (p.o. 5 mg/kg/day during 4 days) is recorded as 48.7± 3.9 pg/ml of plasma; in assay [7] (setting [22]) it was 33.7± 3.6 pg/ml of plasma. Further, the “inhibition on the acified ethanol- and indomethacine- induced ulceration” value in assay [8] is given as 25-50%.
As for `CCOc1ccc(CC2=NCCc3cc(OCC)c(OCC)cc32)cc1OCC` [Nospa, 1-(3-,4′-diethoxybenzyl)-6,7-diethoxy-3,4-dihydro-iso-quinoline], the IC50 turned out to be 840 µM in assay [1] (setting [14]); 810 µM in assay [1] (setting [15]); 740 µM in assay [1] (setting [16]); 580 µM in assay [1] (setting [17]); 840 µM in assay [1] (setting [18]); 740 µM in assay [1] (setting [19]). The IC50 in assay [1] (setting [20]) turned out to be 580 µM; in assay [1] (setting [21]) it was 810 µM; in assay [2], 756 µM; in assay [3] it was 96 µM.
As for `CC(=O)Oc1ccccc1C(=O)O` [ASA, acetylsalicylic acid, reference compound], the IC50 worked out at 2440 µM in assay [1] (setting [23]), 4050 µM in assay [1] (setting [24]), 2610 µM in assay [1] (setting [25]) and 780 µM in assay [1] (setting [26]).
`CC(=O)CCCCn1c(=O)c2c(ncn2C)n(C)c1=O` [Pentoxifylline, reference compound]: the IC50 in assay [1] (Oryctolagus cuniculus, Platelet, Table 5, unit inferred, aggregation induced by AA, read-out: Antiaggregatory Effect AA) came out at 1870 µM; in assay [1] (Oryctolagus cuniculus, Platelet, Table 5, unit inferred, aggregation induced by ADP, read-out: Antiaggregatory Effect ADP), 2660 µM; in assay [1] (Oryctolagus cuniculus, Platelet, Table 5, unit inferred, aggregation induced by Collagen, read-out: Antiaggregatory Effect Collagen), 2050 µM; in assay [1] (setting [23]), 2770 µM; in assay [1] (setting [24]), 2660 µM; in assay [1] (setting [25]), 2050 µM. Further, the values for the IC50 in assay [1] (setting [26]), in assay [2] (setting [13]) and in assay [3] (setting [13]) were 1870 µM, 1000 µM and 800 µM, respectively.
